In the supplement of paper PMC13380429:

Assays:
Settings in all cases: 72 h
[1] = test system: Caco-2; assay: cell viability relative to DMSO; higher = less toxic
[2] = test system: Calu-3; assay: as above
[3] = test system: HepG2; assay: as above
[4] = test system: U2OS; assay: as above
[5] = test system: Vero E6; assay: as above
[6] = test system: Caco-2; assay: relative viability EC50 (midpoint between 100% and the lowest measured viability); higher = less toxic
[7] = test system: Calu-3; assay: as above
[8] = test system: HepG2; assay: as above
[9] = test system: U2OS; assay: as above
[10] = test system: Vero E6; assay: as above
[11] = test system: Caco-2; assay: drug sensitivity score (DSS) for viability; higher = more toxic; extreme values may be limits of the assay
[12] = test system: Calu-3; assay: as above
[13] = test system: HepG2; assay: as above
[14] = test system: U2OS; assay: as above
[15] = test system: Vero E6; assay: as above

## C[C@@H]1COCCN1c1cc(C2(S(C)(=O)=O)CC2)nc(-c2cccc3[nH]ccc23)n1 [AZ20]
[1]; 1 nM
  cell viability: 88.1%
[1]; 10 nM
  cell viability: 96.3%
[1]; 100 nM
  cell viability: 89.5%
[1]; 1000 nM
  cell viability: 84.1%
[1]; 10000 nM
  cell viability: 23.1%
[2]; 1 nM
  cell viability: 89.4%
[2]; 10 nM
  cell viability: 97%
[2]; 100 nM
  cell viability: 91.8%
[2]; 1000 nM
  cell viability: 82.3%
[2]; 10000 nM
  cell viability: 34.6%
[3]; 1 nM
  cell viability: 110%
[3]; 10 nM
  cell viability: 110%
[3]; 100 nM
  cell viability: 95.9%
[3]; 1000 nM
  cell viability: 65.6%
[3]; 10000 nM
  cell viability: 31.8%
[4]; 1 nM
  cell viability: 97.4%
[4]; 10 nM
  cell viability: 101%
[4]; 100 nM
  cell viability: 95.9%
[4]; 1000 nM
  cell viability: 94.3%
[4]; 10000 nM
  cell viability: 9.3%
[5]; 1 nM
  cell viability: 102%
[5]; 10 nM
  cell viability: 98.2%
[5]; 100 nM
  cell viability: 98.5%
[5]; 1000 nM
  cell viability: 85.4%
[5]; 10000 nM
  cell viability: 40%
[6]
  relative viability EC50: 1.71 µM
[7]
  relative viability EC50: 1.57 µM
[8]
  relative viability EC50: 0.973 µM
[9]
  relative viability EC50: 2.66 µM
[10]
  relative viability EC50: 1.57 µM
[11]
  drug sensitivity score: 6.8
[12]
  drug sensitivity score: 6
[13]
  drug sensitivity score: 7.8
[14]
  drug sensitivity score: 5.9
[15]
  drug sensitivity score: 5.6

## Cc1nn(C)c2c1C(c1ccc(C(F)(F)F)cc1)C(C#N)=C(N)O2 (stereo not given) [BQU57]
[1]; 1 nM
  cell viability: 94.3%
[1]; 10 nM
  cell viability: 93.5%
[1]; 100 nM
  cell viability: 95%
[1]; 1000 nM
  cell viability: 97.1%
[1]; 10000 nM
  cell viability: 89.2%
[2]; 1 nM
  cell viability: 98.7%
[2]; 10 nM
  cell viability: 104%
[2]; 100 nM
  cell viability: 98.7%
[2]; 1000 nM
  cell viability: 108%
[2]; 10000 nM
  cell viability: 104%
[3]; 1 nM
  cell viability: 109%
[3]; 10 nM
  cell viability: 97.9%
[3]; 100 nM
  cell viability: 103%
[3]; 1000 nM
  cell viability: 99%
[3]; 10000 nM
  cell viability: 102%
[4]; 1 nM
  cell viability: 98%
[4]; 10 nM
  cell viability: 101%
[4]; 100 nM
  cell viability: 98.8%
[4]; 1000 nM
  cell viability: 100%
[4]; 10000 nM
  cell viability: 102%
[5]; 1 nM
  cell viability: 104%
[5]; 10 nM
  cell viability: 104%
[5]; 100 nM
  cell viability: 103%
[5]; 1000 nM
  cell viability: 101%
[5]; 10000 nM
  cell viability: 99.7%
[6]
  relative viability EC50: > 10 µM
[7]
  relative viability EC50: > 10 µM
[8]
  relative viability EC50: > 10 µM
[9]
  relative viability EC50: > 10 µM
[10]
  relative viability EC50: > 10 µM
[11]
  drug sensitivity score: 0
[12]
  drug sensitivity score: 0
[13]
  drug sensitivity score: 0
[14]
  drug sensitivity score: 0
[15]
  drug sensitivity score: 0

## O=[N+]([O-])c1cc(Cl)ccc1S(=O)(=O)c1ccccc1 [BTB1]
[1]; 1 nM
  cell viability: 95.8%
[1]; 10 nM
  cell viability: 90.2%
[1]; 100 nM
  cell viability: 97.5%
[1]; 1000 nM
  cell viability: 98.6%
[1]; 10000 nM
  cell viability: 100%
[2]; 1 nM
  cell viability: 97.1%
[2]; 10 nM
  cell viability: 98.2%
[2]; 100 nM
  cell viability: 107%
[2]; 1000 nM
  cell viability: 103%
[2]; 10000 nM
  cell viability: 115%
[3]; 1 nM
  cell viability: 99.2%
[3]; 10 nM
  cell viability: 103%
[3]; 100 nM
  cell viability: 82.7%
[3]; 1000 nM
  cell viability: 88.1%
[3]; 10000 nM
  cell viability: 108%
[4]; 1 nM
  cell viability: 98.5%
[4]; 10 nM
  cell viability: 95.4%
[4]; 100 nM
  cell viability: 102%
[4]; 1000 nM
  cell viability: 103%
[4]; 10000 nM
  cell viability: 102%
[5]; 1 nM
  cell viability: 97%
[5]; 10 nM
  cell viability: 94.4%
[5]; 100 nM
  cell viability: 93.9%
[5]; 1000 nM
  cell viability: 97.9%
[5]; 10000 nM
  cell viability: 101%
[6]
  relative viability EC50: > 10 µM
[7]
  relative viability EC50: > 10 µM
[8]
  relative viability EC50: > 10 µM
[9]
  relative viability EC50: > 10 µM
[10]
  relative viability EC50: > 10 µM
[11]
  drug sensitivity score: 0
[12]
  drug sensitivity score: 0
[13]
  drug sensitivity score: 0
[14]
  drug sensitivity score: 0
[15]
  drug sensitivity score: 0

## CC(N)Cc1c[nH]c2ccc(OCc3cccs3)cc12 (stereo not given) [BW-723C86]
[1]; 1 nM
  cell viability: 99.8%
[1]; 10 nM
  cell viability: 97.7%
[1]; 100 nM
  cell viability: 93%
[1]; 1000 nM
  cell viability: 94.8%
[1]; 10000 nM
  cell viability: 98.8%
[2]; 1 nM
  cell viability: 109%
[2]; 10 nM
  cell viability: 95.6%
[2]; 100 nM
  cell viability: 98.6%
[2]; 1000 nM
  cell viability: 104%
[2]; 10000 nM
  cell viability: 76.5%
[3]; 1 nM
  cell viability: 102%
[3]; 10 nM
  cell viability: 107%
[3]; 100 nM
  cell viability: 96.8%
[3]; 1000 nM
  cell viability: 95.5%
[3]; 10000 nM
  cell viability: 81%
[4]; 1 nM
  cell viability: 102%
[4]; 10 nM
  cell viability: 98.2%
[4]; 100 nM
  cell viability: 99%
[4]; 1000 nM
  cell viability: 98.2%
[4]; 10000 nM
  cell viability: 96.9%
[5]; 1 nM
  cell viability: 96%
[5]; 10 nM
  cell viability: 94.9%
[5]; 100 nM
  cell viability: 95.1%
[5]; 1000 nM
  cell viability: 96.1%
[5]; 10000 nM
  cell viability: 89.1%
[6]
  relative viability EC50: > 10 µM
[7]
  relative viability EC50: > 10 µM
[8]
  relative viability EC50: > 10 µM
[9]
  relative viability EC50: > 10 µM
[10]
  relative viability EC50: > 10 µM
[11]
  drug sensitivity score: 0
[12]
  drug sensitivity score: 0.7
[13]
  drug sensitivity score: 1
[14]
  drug sensitivity score: 0
[15]
  drug sensitivity score: 0

## CCS(=O)(=O)N1CCC([C@@H](C)n2c(C)c(C(=O)NCc3c(OC)cc(C)[nH]c3=O)c3ccccc32)CC1 [CPI-169]
[1]; 1 nM
  cell viability: 95.8%
[1]; 10 nM
  cell viability: 94.7%
[1]; 100 nM
  cell viability: 101%
[1]; 1000 nM
  cell viability: 100%
[1]; 10000 nM
  cell viability: 95%
[2]; 1 nM
  cell viability: 97.3%
[2]; 10 nM
  cell viability: 102%
[2]; 100 nM
  cell viability: 98.7%
[2]; 1000 nM
  cell viability: 94.3%
[2]; 10000 nM
  cell viability: 97.4%
[3]; 1 nM
  cell viability: 104%
[3]; 10 nM
  cell viability: 103%
[3]; 100 nM
  cell viability: 104%
[3]; 1000 nM
  cell viability: 94.3%
[3]; 10000 nM
  cell viability: 101%
[4]; 1 nM
  cell viability: 92.1%
[4]; 10 nM
  cell viability: 101%
[4]; 100 nM
  cell viability: 99.3%
[4]; 1000 nM
  cell viability: 105%
[4]; 10000 nM
  cell viability: 102%
[5]; 1 nM
  cell viability: 100%
[5]; 10 nM
  cell viability: 96.7%
[5]; 100 nM
  cell viability: 96.9%
[5]; 1000 nM
  cell viability: 99.7%
[5]; 10000 nM
  cell viability: 103%
[6]
  relative viability EC50: > 10 µM
[7]
  relative viability EC50: > 10 µM
[8]
  relative viability EC50: > 10 µM
[9]
  relative viability EC50: > 10 µM
[10]
  relative viability EC50: > 10 µM
[11]
  drug sensitivity score: 0
[12]
  drug sensitivity score: 0
[13]
  drug sensitivity score: 0
[14]
  drug sensitivity score: 0
[15]
  drug sensitivity score: 0
